In US20210283261A1, “Compositions and Methods for Treating ALK-Mediated Cancer” (ICAHN SCHOOL OF MEDICINE AT MOUNT SINAI, priority 2017, published 2021) one finds Dmax data, which are given here for 16 molecules.

Each structure is given as a SMILES string. Some results are limits rather than exact numbers.

T1 sequence (Q9UM73 with tags, fused parts or gaps): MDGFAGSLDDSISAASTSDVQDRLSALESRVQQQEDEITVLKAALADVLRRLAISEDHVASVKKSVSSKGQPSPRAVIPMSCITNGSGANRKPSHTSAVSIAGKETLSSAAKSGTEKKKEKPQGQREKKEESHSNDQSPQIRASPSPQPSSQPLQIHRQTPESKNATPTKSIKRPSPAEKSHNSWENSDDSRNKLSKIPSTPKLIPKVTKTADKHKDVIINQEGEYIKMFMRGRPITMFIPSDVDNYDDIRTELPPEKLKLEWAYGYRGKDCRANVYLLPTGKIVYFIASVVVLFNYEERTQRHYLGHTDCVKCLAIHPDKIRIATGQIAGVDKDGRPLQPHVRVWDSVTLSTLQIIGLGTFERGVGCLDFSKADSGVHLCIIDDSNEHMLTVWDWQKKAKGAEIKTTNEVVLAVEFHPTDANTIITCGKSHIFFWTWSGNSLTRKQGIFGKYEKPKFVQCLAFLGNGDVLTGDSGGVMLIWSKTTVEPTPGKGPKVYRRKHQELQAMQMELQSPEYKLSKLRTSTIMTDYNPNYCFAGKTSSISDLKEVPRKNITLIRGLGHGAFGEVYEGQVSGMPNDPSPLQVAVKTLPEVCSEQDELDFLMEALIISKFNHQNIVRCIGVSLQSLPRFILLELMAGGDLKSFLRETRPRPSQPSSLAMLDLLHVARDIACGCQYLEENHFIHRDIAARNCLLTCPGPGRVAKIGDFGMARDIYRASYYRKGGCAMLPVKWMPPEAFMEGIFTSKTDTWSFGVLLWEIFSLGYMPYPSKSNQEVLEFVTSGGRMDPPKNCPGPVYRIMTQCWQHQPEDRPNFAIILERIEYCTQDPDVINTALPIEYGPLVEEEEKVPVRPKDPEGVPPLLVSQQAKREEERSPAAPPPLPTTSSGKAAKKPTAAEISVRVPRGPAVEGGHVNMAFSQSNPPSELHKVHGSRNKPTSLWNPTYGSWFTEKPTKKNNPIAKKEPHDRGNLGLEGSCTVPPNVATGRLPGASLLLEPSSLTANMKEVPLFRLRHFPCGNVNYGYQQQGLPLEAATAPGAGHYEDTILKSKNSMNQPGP

The assay concerns the target T1, ALK fusion protein (Homo sapiens, UniProt Q9UM73).
T1 construct: endogenous in cells; host or cells: NCI-H3122; the other entry of the earlier key: EML4 (Q9HC35, Echinoderm microtubule-associated protein-like 4)
In words: Western blot of ALK fusion protein levels in NCI-H3122 cells. The assay is classed as cell-based. The following applies: NCI-H3122, NCI-H3122 cells, 500 nM, Western blot; read-out: ALK fusion protein degradation, NCI-H3122 (500 nM). On the procedure:
SU-DHL-1, NCI-H3122 and NCI-H2228 cells were cultured in RPMI-1640 medium supplemented with 10% fetal bovine serum, 50 μg/mL penicillin and streptomycin. Cells were cultured in a 37° C. incubator with 5% CO2.
Cells were washed with cold PBS once and lysed in 1× Laemmli loading buffer directly. Lysates were heated at 99° C. for […], and resolved on 4-15% precast SDS-PAGE (BIO-RAD) and transferred onto PVDF membrane. Membrane was blocked in 5% milk in Tris-buffered saline and Tween 20 (TBST) for 1 h at room temperature, followed by incubation with a primary antibody overnight at 4° C., and a horseradish peroxidase (HRP)-conjugated secondary antibody for 1 h at room temperature. The membrane was imaged by a ChemiDoc MP imaging system (BIO-RAD). Antibodies against GAPDH (abeam), Phospho-ALK (Tyr1507), ALK (Cell Signaling Technology), Tubulin (Santa Cruz) were purchased commercially. […]
Turning to `Cc1cc(Nc2ncc(Cl)c(Nc3ccccc3S(=O)(=O)C(C)C)n2)c(OC(C)C)cc1C1CCN(C(=O)CNc2cccc3c2C(=O)N(C2CCC(=O)NC2=O)C3=O)CC1` (stereo not shown) [CZ47-01, 4-((2-(4-(4-((5-Chloro-4-((2-(isopropylsulfonyl)phenyl)amino)pyrimidin-2-yl)amino)-5-isopropoxy-2-methylphenyl)piperidin-1-yl)-2-oxoethyl)amino)-2-(2,6-dioxopiperidin-3-yl)isoindoline-1,3-dione], the Dmax at 0.5 µM is less than 20%.
On to `Cc1cc(Nc2ncc(Cl)c(Nc3ccccc3S(=O)(=O)C(C)C)n2)c(OC(C)C)cc1C1CCN(C(=O)CCNc2cccc3c2C(=O)N(C2CCC(=O)NC2=O)C3=O)CC1` (stereo not shown) [CZ47-02, 4-((3-(4-(4-((5-Chloro-4-((2-(isopropylsulfonyl)phenyl)amino)pyrimidin-2-yl)amino)-5-isopropoxy-2-methylphenyl)piperidin-1-yl)-3-oxopropyl)amino)-2-(2,6-dioxopiperidin-3-yl)isoindoline-1,3-dione], for which the Dmax at 0.5 µM is 20 to 80%.
Regarding `Cc1cc(Nc2ncc(Cl)c(Nc3ccccc3S(=O)(=O)C(C)C)n2)c(OC(C)C)cc1C1CCN(C(=O)CCCNc2cccc3c2C(=O)N(C2CCC(=O)NC2=O)C3=O)CC1` (stereo not shown) [CZ47-03, 4-((4-(4-(4-((5-Chloro-4-((2-(isopropylsulfonyl)phenyl)amino)pyrimidin-2-yl)amino)-5-isopropoxy-2-methylphenyl)piperidin-1-yl)-4-oxobutyl)amino)-2-(2,6-dioxopiperidin-3-yl)isoindoline-1,3-dione], the Dmax at 0.5 µM was in the range of 20 to 80%.
In the case of `Cc1cc(Nc2ncc(Cl)c(Nc3ccccc3S(=O)(=O)C(C)C)n2)c(OC(C)C)cc1C1CCN(C(=O)CCCCNc2cccc3c2C(=O)N(C2CCC(=O)NC2=O)C3=O)CC1` (stereo not shown) [CZ47-04, 4-((5-(4-(4-((5-Chloro-4-((2-(isopropylsulfonyl)phenyl)amino)pyrimidin-2-yl)amino)-5-isopropoxy-2-methylphenyl)piperidin-1-yl)-5-oxopentyl)amino)-2-(2,6-dioxopiperidin-3-yl)isoindoline-1,3-dione], the Dmax at 0.5 µM was in the range of 20 to 80%.
With `Cc1cc(Nc2ncc(Cl)c(Nc3ccccc3S(=O)(=O)C(C)C)n2)c(OC(C)C)cc1C1CCN(C(=O)CCCCCNc2cccc3c2C(=O)N(C2CCC(=O)NC2=O)C3=O)CC1` (stereo not shown) [CZ47-05, 4-((6-(4-(4-((5-Chloro-4-((2-(isopropylsulfonyl)phenyl)amino)pyrimidin-2-yl)amino)-5-isopropoxy-2-methylphenyl)piperidin-1-yl)-6-oxohexyl)amino)-2-(2,6-dioxopiperidin-3-yl)isoindoline-1,3-dione], the Dmax at 0.5 µM is less than 20%.
As for `Cc1cc(Nc2ncc(Cl)c(Nc3ccccc3S(=O)(=O)C(C)C)n2)c(OC(C)C)cc1C1CCN(C(=O)CCCCCCNc2cccc3c2C(=O)N(C2CCC(=O)NC2=O)C3=O)CC1` (stereo not shown) [CZ47-06, 4-((7-(4-(4-((5-Chloro-4-((2-(isopropylsulfonyl)phenyl)amino)pyrimidin-2-yl)amino)-5-isopropoxy-2-methylphenyl)piperidin-1-yl)-7-oxoheptyl)amino)-2-(2,6-dioxopiperidin-3-yl)isoindoline-1,3-dione], the figure is less than 20%; as for `Cc1cc(Nc2ncc(Cl)c(Nc3ccccc3S(=O)(=O)C(C)C)n2)c(OC(C)C)cc1C1CCN(C(=O)CCCCCCCNc2cccc3c2C(=O)N(C2CCC(=O)NC2=O)C3=O)CC1` (stereo not shown) [CZ47-07, 4-((8-(4-(4-((5-Chloro-4-((2-(isopropylsulfonyl)phenyl)amino)pyrimidin-2-yl)amino)-5-isopropoxy-2-methylphenyl)piperidin-1-yl)-8-oxooctyl)amino)-2-(2,6-dioxopiperidin-3-yl)isoindoline-1,3-dione], 20 to 80%.
For `Cc1cc(Nc2ncc(Cl)c(Nc3ccccc3S(=O)(=O)C(C)C)n2)c(OC(C)C)cc1C1CCN(C(=O)CCOCCNc2cccc3c2C(=O)N(C2CCC(=O)NC2=O)C3=O)CC1` (stereo not shown) [CZ47-08, 4-((2-(3-(4-(4-((5-Chloro-4-((2-(isopropylsulfonyl)phenyl)amino)pyrimidin-2-yl)amino)-5-isopropoxy-2-methylphenyl)piperidin-1-yl)-3-oxopropoxy)ethyl)amino)-2-(2,6-dioxopiperidin-3-yl)isoindoline-1,3-dione] the value was more than 80%; for `Cc1cc(Nc2ncc(Cl)c(Nc3ccccc3S(=O)(=O)C(C)C)n2)c(OC(C)C)cc1C1CCN(C(=O)CCOCCOCCNc2cccc3c2C(=O)N(C2CCC(=O)NC2=O)C3=O)CC1` (stereo not shown) [CZ47-09, 4-((2-(2-(3-(4-(4-((5-Chloro-4-((2-(isopropylsulfonyl)phenyl)amino)pyrimidin-2-yl)amino)-5-isopropoxy-2-methylphenyl)piperidin-1-yl)-3-oxopropoxy)ethoxy)ethyl)amino)-2-(2,6-dioxopiperidin-3-yl)isoindoline-1,3-dione], more than 80%.
As to `Cc1cc(Nc2ncc(Cl)c(Nc3ccccc3S(=O)(=O)C(C)C)n2)c(OC(C)C)cc1C1CCN(C(=O)CCOCCOCCOCCNc2cccc3c2C(=O)N(C2CCC(=O)NC2=O)C3=O)CC1` (stereo not shown) [CZ47-10, 4-((2-(2-(2-(3-(4-(4-((5-Chloro-4-((2-(isopropylsulfonyl)phenyl)amino)pyrimidin-2-yl)amino)-5-isopropoxy-2-methylphenyl)piperidin-1-yl)-3-oxopropoxy)ethoxy)ethoxy)ethyl)amino)-2-(2,6-dioxopiperidin-3-yl)isoindoline-1,3-dione], the Dmax at 0.5 µM was less than 20%.
Consider `Cc1cc(Nc2ncc(Cl)c(Nc3ccccc3S(=O)(=O)C(C)C)n2)c(OC(C)C)cc1C1CCN(C(=O)CCOCCOCCOCCOCCNc2cccc3c2C(=O)N(C2CCC(=O)NC2=O)C3=O)CC1` (stereo not shown) [CZ47-11, 4-((15-(4-(4-((5-Chloro-4-((2-(isopropylsulfonyl)phenyl)amino)pyrimidin-2-yl)amino)-5-isopropoxy-2-methylphenyl)piperidin-1-yl)-15-oxo-3,6,9,12-tetraoxapentadecyl)amino)-2-(2,6-dioxopiperidin-3-yl)isoindoline-1,3-dione], for which the Dmax at 0.5 µM was 20 to 80%.
With `Cc1cc(Nc2ncc(Cl)c(Nc3ccccc3S(=O)(=O)C(C)C)n2)c(OC(C)C)cc1C1CCN(C(=O)CCOCCOCCOCCOCCOCCNc2cccc3c2C(=O)N(C2CCC(=O)NC2=O)C3=O)CC1` (stereo not shown) [CZ47-12, 4-((18-(4-(4-((5-Chloro-4-((2-(isopropylsulfonyl)phenyl)amino)pyrimidin-2-yl)amino)-5-isopropoxy-2-methylphenyl)piperidin-1-yl)-18-oxo-3,6,9,12,15-pentaoxaoctadecyl)amino)-2-(2,6-dioxopiperidin-3-yl)isoindoline-1,3-dione], the Dmax at 0.5 µM was 20 to 80%.
With `Cc1cc(Nc2ncc(Cl)c(Nc3ccccc3S(=O)(=O)C(C)C)n2)c(OC(C)C)cc1C1CCN(C(=O)COCC(=O)N[C@H](C(=O)N2C[C@H](O)C[C@H]2C(=O)NCc2ccc(-c3scnc3C)cc2)C(C)(C)C)CC1` [CZ47-13, (2S,4R)-1-((S)-2-(2-(2-(4-(4-((5-Chloro-4-((2-(isopropylsulfonyl)phenyl)amino)pyrimidin-2-yl)amino)-5-isopropoxy-2-methylphenyl)piperidin-1-yl)-2-oxoethoxy)acetamido)-3,3-dimethylbutanoyl)-4-hydroxy-N-(4-(4-methylthiazol-5-yl)benzyl)pyrrolidine-2-carboxamide], the Dmax at 0.5 µM is 20 to 80%.
In the case of `Cc1cc(Nc2ncc(Cl)c(Nc3ccccc3S(=O)(=O)C(C)C)n2)c(OC(C)C)cc1C1CCN(C(=O)CCOCCC(=O)N[C@H](C(=O)N2C[C@H](O)C[C@H]2C(=O)NCc2ccc(-c3scnc3C)cc2)C(C)(C)C)CC1` [CZ47-14, (2S,4R)-1-((S)-2-(3-(3-(4-(4-((5-Chloro-4-((2-(isopropylsulfonyl)phenyl)amino)pyrimidin-2-yl)amino)-5-isopropoxy-2-methylphenyl)piperidin-1-yl)-3-oxopropoxy)propanamido)-3,3-dimethylbutanoyl)-4-hydroxy-N-(4-(4-methylthiazol-5-yl)benzyl)pyrrolidine-2-carboxamide], the Dmax at 0.5 µM lay within 20 to 80%.
For `Cc1cc(Nc2ncc(Cl)c(Nc3ccccc3S(=O)(=O)C(C)C)n2)c(OC(C)C)cc1C1CCN(C(=O)CCOCCOCCC(=O)N[C@H](C(=O)N2C[C@H](O)C[C@H]2C(=O)NCc2ccc(-c3scnc3C)cc2)C(C)(C)C)CC1` [CZ47-16, (2S,4R)-1-((S)-2-(3-(2-(3-(4-(4-((5-Chloro-4-((2-(isopropylsulfonyl)phenyl)amino)pyrimidin-2-yl)amino)-5-isopropoxy-2-methylphenyl)piperidin-1-yl)-3-oxopropoxy)ethoxy)propanamido)-3,3-dimethylbutanoyl)-4-hydroxy-N-(4-(4-methylthiazol-5-yl)benzyl)pyrrolidine-2-carboxamide] the value was less than 20%; for `Cc1cc(Nc2ncc(Cl)c(Nc3ccccc3S(=O)(=O)C(C)C)n2)c(OC(C)C)cc1C1CCN(C(=O)COCCOCCOCC(=O)N[C@H](C(=O)N2C[C@H](O)C[C@H]2C(=O)NCc2ccc(-c3scnc3C)cc2)C(C)(C)C)CC1` [CZ47-17, (2S,4R)-1-((S)-2-(tert-Butyl)-14-(4-(4-((5-chloro-4-((2-(isopropylsulfonyl)phenyl)amino)pyrimidin-2-yl)amino)-5-isopropoxy-2-methylphenyl)piperidin-1-yl)-4,14-dioxo-6,9,12-trioxa-3-azatetradecanoyl)-4-hydroxy-N-(4-(4-methylthiazol-5-yl)benzyl)pyrrolidine-2-carboxamide], less than 20%.
